Measurements published in patent US5492890A, “Polypeptides for promoting cell attachment” (The Scripps Research Institute, priority 1991, dated 1996).

Columns and labels:
GPIIb-IIIa [1] = target: T1, GPIIb-IIIa (Homo sapiens, UniProt P05106+P08514); assay: Competition assay: synthetic polypeptide inhibition of biotinylated Fn binding to purified GPIIb-IIIa; conditions: for inhibition of Fn binding to GPIIb-IIIa: tested at 200 μM polypeptide
T1 construct: platelet membrane GPIIb-IIIa protein from lysed platelets; from tissue
Protocol: The competition assays are performed as described by Charo et al., J. Biol. Chem., 266:1415-1421 (1991). The competition assay is performed by first admixing into individual wells of a 96 well microtiter plate (Immunlon, Dynatech) 10 μg/ml of purified GPIIb-IIIa, prepared in Example 1, diluted in HEPES-saline buffer, pH 7.4, consisting of 10 mM HEPES, 150 mM NaCl 1 mM CaCl2 and 1 mMMgCl2. The plates are maintained for 16 hours at 4° C. to allow the purified receptor to adsorb onto the walls of the wells. The receptor-coated wells are then washed two times with Modified Tyrode's buffer, prepared as described in Example 1, to remove any non-bound receptor from the receptor-coated wells. Non-receptor-occupied sites on the microtiter wells are blocked by admixing 5% BSA dissolved in Modified Tyrode's buffer into each well and maintaining the plate for 2 hours at room temperature.
After removing the blocking solution and washing the blocked wells as described above, 50 μl of a 10 nM solution of biotinylated Fn in Modified Tyrode's buffer is admixed into each well in the presence of polypeptides prepared in Example 9a ranging in concentration from 0.1 μM to 200 μM polypeptide to form a solid-liquid phase receptor-protein admixture. Fn admixed in the absence of polypeptides served as a positive control for the competition assay. Purified Fn is prepared as described in Example 2.
The resultant purified Fn is then biotinylated as described by Dale et al., Blood, 77:1096-1099 (1991). Briefly, for biotinylation, Fn is first dialyzed into 0.1M NaHCO3 containing 0.1M NaCl at pH 8.0 and centrifuged at 100,000× g for 30 minutes at 4° C. to remove any particulate matter. The protein concentration is adjusted to 0.5 mg/ml in 50 mM sodium borate at pH 8.5. […]
The Fn-peptide admixtures are maintained in GPIIb-IIIa-coated wells for 2 hours at room temperature to allow the biotinylated Fn to bind to the receptor. Following this maintenance period, the reacted wells are washed as described above and the amount of biotinylated Fn bound to GPIIb-IIIa is determined by admixing 0.1 ml avidin bound to biotinylated horseradish peroxidase H (Hrp) (Sigma, St. Louis, Mo.) at a 1:2000 dilution to form an avidin-biotinylated Fn admixture. […] Excess avidin Hrp is removed by washing as described and the presence of biotinylated Fn bound to purified GPIIb-IIIa is detected by admixture of 50 μl of freshly prepared chromogenic substrate solution containing 4.0 mg/ml 0-phenylenediamine and 0.012% (v/v) hydrogen peroxide in CP buffer as described in Example 3a. After maintaining the color developing-reaction admixture for 10 minutes at 20° C., the reaction is stopped with the admixture of 2N H2 SO4 and the stopped reactions are measured for absorbance as described in Example 3a.

GPIIb-IIIa [2] = target: T1, GPIIb-IIIa; assay: Inhibition of 125I-Fn binding to immobilized GPIIb-IIIa by fusion proteins (competition binding); conditions: varying concentrations, FIG. 3
Protocol: The ability of a fusion protein or polypeptide of the present invention to inhibit the binding interaction between GPIIb-IIIa and either fibronectin or fibrinogen was measured by competition binding to immobilized GPIIb-IIIa.
Incubate the GPIIb-IIIa in the plate for 16 hours at 4° C., then the unbound material is removed from the wells which are then blocked with 150 μl of 5% BSA in the same buffer for 1 hour at room temperature. Wash the wells three times with 150 μl of Tyrode's buffer with 5 mM HEPES, 1 mM MgCl2, 1 mg/ml dextrose, 1 mg/ml BSA. […] Incubate 4 hours to overnight at room temperature (with lead shield).
Carefully remove radioactive samples and wash 3 times with 150 μl Tyrodes with 5 mM HEPES, 1 mMMgCl2, 1 mg/ml dextrose, 1 mg/ml BSA. Count with a Gamma Counter and elute by boiling in SDS-PAGE loading Buffer.
In an alternative embodiment, non-radioactive Fn may be used instead of radioactive, and detected by reacting with an appropriate anti-Fn antibody and HRP-conjugated secondary antibody. Using this variation, each antibody is incubated with the washed plate for 1 hr. The anti-Fn antibody is titrated, but a 1:1000 dilution of HRP-conjugated antibody from most manufacturers works fine.

GPIIb-IIIa [3] = target: T1, GPIIb-IIIa; assay: Direct binding of 125I-labelled ligands to microtiter wells coated with purified GPIIb-IIIa
Description: To determine if the insert coded polypeptide containing fibronectin residues 1235-1436 bound GPIIb-IIIa, the capacity of microtiter wells coated with purified GPIIb-IIIa to bind the radiolabelled fusion-protein preparation was ascertained (Table 3). In addition, the radiolabelled material bound to the insolubilized GPIIb-IIIa was recovered and analyzed by SDS-PAGE followed by radioautography. […] The isolated protein products were a mixture of insert coded polypeptides containing fusion protein and maltose binding protein breakdown products. Only those bands containing the insert-coded polypeptide bound to the insolubilized GPIIb-IIIa and that binding was inhibitable by either EDTA or the monoclonal antibody FnI-16.

Question: Which “inhibition of Fn binding to GPIIb-IIIa” value (GPIIb-IIIa [1]) does the source give for “(2:73-274): polypeptide of SEQ ID NO 2 residues 73-274, Fn residues 1235-1436” here?
Answer: Its value is “inhibit Fn binding to GPIIb-IIIa”.

Question: “(2:248-274): synthetic polypeptide of SEQ ID NO 2 residues 248-274, Fn residues 1410-1436 (IGQQSTVSDVPRDLEVVAATPTSLLIS)” was tested. Which “polypeptide concentration for maximal inhibition of Fn binding to GPIIb-IIIa” value (GPIIb-IIIa [1]; 10 nM biotinylated Fn) did it give?
Answer: Its value is “approximately 200 μM”.

Question: And the “competitive inhibition of Fn binding to purified GPIIb-IIIa” value (GPIIb-IIIa [1]; 10 nM biotinylated Fn, 0.1 to 200 μM polypeptide)?
Answer: Its value is “competitively inhibits”.

Question: With Fibronectin as the substance, how does the “inhibition of fibronectin binding to purified GPIIb-IIIa” value (GPIIb-IIIa [2]) read?
Answer: The value was “inhibited fibronectin binding”.

Question: And the “binding of radiolabelled ligand to insolubilized GPIIb-IIIa” value (GPIIb-IIIa [3]; GPIIb-IIIa coated wells)?
Answer: The value was “Specific binding”.

Question: What about the “125I-labelled ligand bound to GPIIb-IIIa” value (GPIIb-IIIa [3]; inhibitor 2 mM EDTA) of the same substance?
Answer: Its value is 8 Counts × 10^-3.

Question: And the “125I-labelled ligand bound to GPIIb-IIIa” value (GPIIb-IIIa [3]; inhibitor Mab 16.12)?
Answer: Its value is 12 Counts × 10^-3.

Question: What about the “125I-labelled ligand bound to GPIIb-IIIa” value (GPIIb-IIIa [3]; no inhibitor) of the same substance?
Answer: The value was 42 Counts × 10^-3.

Question: “(2:197-274): polypeptide of SEQ ID NO 2 residues 197-274, Fn residues 1359-1436” was tested. Which “inhibition of Fn binding to GPIIb-IIIa” value (GPIIb-IIIa [1]) did it give?
Answer: Its value is “inhibit Fn binding to GPIIb-IIIa”.
